Assay results as given in patent US4402978A, “Gastro-protecting activity of substituted derivatives of 4-phenyl-4-oxo-2-hydroxy-butanoic acid” (Roussel-Uclaf, priority 1980, dated 1983).

Experiments:
[1] = Determination of Acute Toxicity (oral LD50 in mice); conditions: mouse, in vivo
Method: (2) Determination of Acute Toxicity
The lethal dose LD50 of the derivatives of certain examples were evaluated after administration by the oral route in mice.

[2] = system: ulcers in rats in the stomach region; assay: Determination of anti-ulcer activity (Shay method, ulcers induced in rats by pyloric ligation); assay type: in vivo; conditions: via the mouth, 16 hours after treatment
From the text: (1) Determination of anti-ulcer activity
The method used is described by Shay et al. in Gastroenterology, 5, 43, (1945).
The Shay method consists of inducing ulcers in rats in the stomach region by pyloric ligation.
The animals are anesthetized with ether. A longitudinal incision is made, 1 cm below the sternum; the glandular part of the stomach and the duodenum are exposed, and a ligature is placed several mm below the pylorus. The muscular sheet is left as it is and the skin is sutured with 2 clips.
The animals immediately receive the dispersive or the substance to be studied, via the mouth, in a volume of 0.5 ml/100 g and are kept without food or drink until sacrificed, 16 hours after the treatment, by carotid bleeding.
Before removal of the stomach, a ligature is placed above the cardia.
The gastric liquid is collected for measurement of pH.
The stomach is then opened along the major curvature, rinsed with physiological serum, and spread out on millimeter graph paper to be examined under a binocular magnifier.
The severity of the lesions, graded 0 to 4, is macroscopically evaluated for each stomach.
For each group of rats, the mean intensity of the ulcerations is determined, and the protection is calculated as the ratio of the mean index for the treated group to the mean index for the control group.
The pH values of the gastric liquid are likewise determined for the treated and control animals.

COc1ccc(C(=O)CC(O)C(=O)O)cc1OC (stereo not shown) [Example 1, 4-(3,4-dimethoxyphenyl)-4-oxo-2-hydroxy-butanoic acid]
LD50 [1]: > 1000 mg/kg
Ulcerations, % of protection with respect to controls ([2]; 0.8 mg/kg): 27%
pH of gastric liquid, treated animals ([2]; 0.8 mg/kg): 3.4
Ulcerations, % of protection with respect to controls ([2]; 4 mg/kg): 72%
pH of gastric liquid, treated animals ([2]; 4 mg/kg): 3.0
Ulcerations, % of protection with respect to controls ([2]; 20 mg/kg): 72%
pH of gastric liquid, treated animals ([2]; 20 mg/kg): 2.3

O=C(CC(O)C(=O)O)c1ccc(Cl)cc1 (stereo not shown) [Example 2, 4-(4-chlorophenyl)-4-oxo-2-hydroxy-butanoic acid]
LD50 [1]: > 1000 mg/kg
Ulcerations, % of protection with respect to controls ([2]; 4 mg/kg): 25%
pH of gastric liquid, treated animals ([2]; 4 mg/kg): 3.5
Ulcerations, % of protection with respect to controls ([2]; 20 mg/kg): 72%
pH of gastric liquid, treated animals ([2]; 20 mg/kg): 3.0

O=C(CC(O)C(=O)O)c1ccc(Cl)c(Cl)c1 (stereo not shown) [Example 3, 4-(3,4-dichlorophenyl)-4-oxo-2-hydroxy-butanoic acid]
LD50 [1]: > 1000 mg/kg
Ulcerations, % of protection with respect to controls ([2]; 20 mg/kg): 36%
pH of gastric liquid, treated animals ([2]; 20 mg/kg): 3.2
Ulcerations, % of protection with respect to controls ([2]; 100 mg/kg): 91%
pH of gastric liquid, treated animals ([2]; 100 mg/kg): 4.2

O=C(CC(O)C(=O)O)c1ccc(Cl)cc1Cl (stereo not shown) [Example 4, 4-(2,4-dichlorophenyl)-4-oxo-2-hydroxy-butanoic acid]
LD50 [1]: > 1000 mg/kg
Ulcerations, % of protection with respect to controls ([2]; 20 mg/kg): 9%
pH of gastric liquid, treated animals ([2]; 20 mg/kg): 2.9
Ulcerations, % of protection with respect to controls ([2]; 100 mg/kg): 91%
pH of gastric liquid, treated animals ([2]; 100 mg/kg): 4.4

O=C(CC(O)C(=O)O)c1ccc(Br)cc1 (stereo not shown) [Example 5, 4-(4-bromophenyl)-4-oxo-2-hydroxy-butanoic acid]
LD50 [1]: > 1000 mg/kg
Ulcerations, % of protection with respect to controls ([2]; 20 mg/kg): 40%
pH of gastric liquid, treated animals ([2]; 20 mg/kg): 3.1
Ulcerations, % of protection with respect to controls ([2]; 100 mg/kg): 95%
pH of gastric liquid, treated animals ([2]; 100 mg/kg): 3.4

O=C(CC(O)C(=O)O)c1ccc([N+](=O)[O-])cc1 (stereo not shown) [Example 8, 4-(4-nitrophenyl)-4-oxo-2-hydroxy-butanoic acid]
LD50 [1]: > 1000 mg/kg
Ulcerations, % of protection with respect to controls ([2]; 100 mg/kg): 49%
pH of gastric liquid, treated animals ([2]; 100 mg/kg): 3.0

COc1cc(OC)cc(C(=O)CC(O)C(=O)O)c1 (stereo not shown) [Example 11, 4-(3,5-dimethoxyphenyl)-4-oxo-2-hydroxy-butanoic acid]
LD50 [1]: > 1000 mg/kg
Ulcerations, % of protection with respect to controls ([2]; 1 mg/kg): 53%
pH of gastric liquid, treated animals ([2]; 1 mg/kg): 1.9
Ulcerations, % of protection with respect to controls ([2]; 4 mg/kg): 50%
pH of gastric liquid, treated animals ([2]; 4 mg/kg): 2.0
Ulcerations, % of protection with respect to controls ([2]; 20 mg/kg): 60%
pH of gastric liquid, treated animals ([2]; 20 mg/kg): 2.0
Ulcerations, % of protection with respect to controls ([2]; 100 mg/kg): 88%
pH of gastric liquid, treated animals ([2]; 100 mg/kg): 3.0

O=C(CC(O)C(=O)O)c1ccccc1[N+](=O)[O-] (stereo not shown) [Example 13, 4-(2-nitrophenyl)-4-oxo-2-hydroxy-butanoic acid]
LD50 [1]: > 1000 mg/kg
